Measurements as given in patent publication US10781215B2, “Heterobicyclic compounds useful as modulators of IL-12, IL-23 and/or IFNα responses” (BRISTOL-MYERS SQUIBB COMPANY, priority 2016, dated 2020).

Assays:
[1] = test system: IL-23 stimulated Kit225 T cells (STAT-dependent luciferase reporter); assay: Kit225 T cell assay, IL-23 stimulated STAT-dependent luciferase reporter; format: cell-based; settings: 20 ng/mL human recombinant IL-23, 5-6 hours
Protocol: (§1) Kit225 T cells with a stably-integrated STAT-dependent luciferase reporter were plated in RPMI (Gibco) containing 10% heat-inactivated FBS (Gibco) and 100 U/mL PenStrep (Gibco). The cells were then stimulated with either 20 ng/mL human recombinant IL-23 or 200 U/mL human recombinant IFNα (PBL InterferonSource) for 5-6 hours. Luciferase expression was measured using the STEADY-GLO® Luciferase Assay System (Promega) according to the manufacturer's instructions. Inhibition data were calculated by comparison to no inhibitor control wells for 0% inhibition and non-stimulated control wells for 100% inhibition. Dose response curves were generated to determine the concentration required to inhibit 50% of cellular response (IC50) as derived by non-linear regression analysis.

[2] = molecular target: T1, recombinant human His-tagged Tyk2 pseudokinase domain (His-TVMV-Tyk2, 575-869) (Homo sapiens, UniProt P29597); assay: Probe displacement assay (HTRF format); format: binding; settings: fluorescein labeled probe, Tyk2 pseudokinase domain 0.5 nM
T1 construct: made in house
Protocol: To 10 μL 26 nM fluorescein labeled probe plus 0.2 nM anti-6×His-terbium labeled antibody (Medarex, labeled by Cisbio) in assay buffer (20 mM Hepes pH 7.5, 150 mM NaCl, 10 mM MgCl2, 2 mM DTT, 50 μg/mL BSA, and 0.015% Brij 35) was added 10 μL recombinant human His-tagged Tyk2 pseudokinase domain (His-TVMV-Tyk2, 575-869) to a final concentration of 0.5 nM. After 1 h at room temperature, the HTRF signal (ratio of fluorescence intensities at emission wavelengths for fluorescein acceptor at 520 nm and terbium donor at 495 nm) was measured on an Envision Plate Reader. Percent inhibition was calculated by comparison to a control without inhibitor and a control without protein. Dose response curves were generated to determine the concentration required for inhibiting 50% of the HTRF signal (EC50).

[3] = test system: IFNα stimulated Kit225 T cells (STAT-dependent luciferase reporter); assay: Kit225 T cell assay, IFNα stimulated STAT-dependent luciferase reporter; format: cell-based; settings: 200 U/mL human recombinant IFNα, 5-6 hours
Protocol: as §1

T1 sequence (P29597 with tags, fused parts or gaps): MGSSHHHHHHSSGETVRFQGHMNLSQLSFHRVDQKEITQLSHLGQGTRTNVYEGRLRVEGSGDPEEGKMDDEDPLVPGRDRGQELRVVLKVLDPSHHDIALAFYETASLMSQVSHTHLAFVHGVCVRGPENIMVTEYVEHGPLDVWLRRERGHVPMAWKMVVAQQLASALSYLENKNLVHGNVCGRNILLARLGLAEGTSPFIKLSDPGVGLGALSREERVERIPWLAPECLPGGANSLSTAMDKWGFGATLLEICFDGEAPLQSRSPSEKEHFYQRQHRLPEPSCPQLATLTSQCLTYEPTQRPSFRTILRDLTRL

SMILES	IC50 [1] [nM]	EC50 [2] [nM]	IC50 [3] [nM]
COc1ccc(Nc2cc(Nc3ncccc3S(C)(=O)=O)c3nc(C)[nH]c3n2)nn1 [Example 45, 7-N-(3-methanesulfonylpyridin-2-yl)-5-N-(6-methoxypyridazin-3-yl)-2-methyl-3H-imidazo[4,5-b]pyridine-5,7-diamine]	462	1.2	288
Cc1ccnc(Nc2cc(Nc3ncccc3S(C)(=O)=O)c3nc(C)[nH]c3n2)c1 [Example 46, 7-N-(3-methanesulfonylpyridin-2-yl)-2-methyl-5-N-(4-methylpyridin-2-yl)-3H-imidazo[4,5-b]pyridine-5,7-diamine]	2980	1.8	323

Results, then the compound that gave them:

IC50 [1] [nM]	EC50 [2] [nM]	IC50 [3] [nM]	SMILES
698	0.4	403	Cc1nc2c(Nc3ncccc3S(C)(=O)=O)cc(NC(=O)C3CC3)nc2[nH]1 [Example 47, N-{7-[(3-methanesulfonylpyridin-2-yl)amino]-2-methyl-3H-imidazo[4,5-b]pyridin-5-yl}cyclopropanecarboxamide]
742	0.6	307	Cc1cnc(Nc2cc(Nc3ncccc3S(C)(=O)=O)c3nc(C)[nH]c3n2)cn1 [Example 48, 7-N-(3-methanesulfonylpyridin-2-yl)-2-methyl-5-N-(5-methylpyrazin-2-yl)-3H-imidazo[4,5-b]pyridine-5,7-diamine]
107	0.7	98	Cc1cccc(Nc2cc(Nc3ncccc3S(C)(=O)=O)c3nc(C)[nH]c3n2)n1 [Example 49, 7-N-(3-methanesulfonylpyridin-2-yl)-2-methyl-5-N-(6-methylpyridin-2-yl)-3H-imidazo[4,5-b]pyridine-5,7-diamine]
367	1.1	267	Cc1nc2c(Nc3ncccc3S(C)(=O)=O)cc(Nc3ccc(N4CCOCC4)cn3)nc2[nH]1 [Example 50, 7-N-(3-methanesulfonylpyridin-2-yl)-2-methyl-5-N-[5-(morpholin-4-yl)pyridin-2-yl]-3H-imidazo[4,5-b]pyridine-5,7-diamine]
